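Compound exposure: 48 hours, 5 concentrations, 96-well plates. GI50 = concentration required for 50% inhibition of growth.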 Calls of active or inactive are those of the source. Cut-off read from the data, not from the text of the source: active = GI50 up to about 1.1 µM and inactive = higher.
How the values were obtained:
Assay in all cases: NCI-60 cell line screen, 48 h
[1] = system: COLO 205
[2] = system: DU-145
[3] = system: HCC 2998
[4] = system: HCT-15
[5] = system: HT-29
[6] = system: LOX IMVI
[7] = system: M14
[8] = system: MDA-MB-231
[9] = system: MDA-MB-435
[10] = system: OVCAR-3
[11] = system: OVCAR-8
[12] = system: PC-3
[13] = system: SK-MEL-5
[14] = system: SW-620
[15] = system: T47D
[16] = system: U-251
[17] = system: UACC-62
[18] = system: KM12
[19] = system: OVCAR-5
[20] = system: RXF 393

CC(C)(C)OC(=O)NCCc1ccc(N)cc1
GI50 [1]: > 100 µM (inactive) | GI50 [2]: > 100 µM (inactive) | GI50 [3]: > 100 µM (inactive) | GI50 [4]: > 100 µM | GI50 [5]: > 100 µM (inactive) | GI50 [6]: > 100 µM (inactive) | GI50 [7]: > 100 µM (inactive) | GI50 [8]: > 100 µM (inactive) | GI50 [9]: > 100 µM (inactive) | GI50 [10]: 19.9 µM (inactive) | GI50 [11]: > 100 µM (inactive) | GI50 [12]: > 100 µM (inactive) | GI50 [13]: 33 µM (inactive) | GI50 [14]: > 100 µM (inactive) | GI50 [15]: 74.5 µM (inactive) | GI50 [16]: 30.8 µM (inactive) | GI50 [17]: > 100 µM (inactive)

O=C(O)C(Cl)(Cl)Cl
GI50 [1]: > 100 µM (inactive) | GI50 [3]: > 100 µM (inactive) | GI50 [4]: > 100 µM | GI50 [18]: > 100 µM (inactive) | GI50 [6]: > 100 µM (inactive) | GI50 [7]: > 100 µM (inactive) | GI50 [19]: > 100 µM (inactive) | GI50 [11]: > 100 µM (inactive) | GI50 [20]: > 100 µM (inactive) | GI50 [13]: > 100 µM (inactive) | GI50 [14]: > 100 µM (inactive) | GI50 [16]: > 100 µM (inactive)

CC(C)(C)OC(=O)C1=C(C(=O)OC(C)(C)C)SC2(S1)C(C(=O)OC(C)(C)C)=C(C(=O)OC(C)(C)C)Sc1c2ssc1=O
GI50 [1]: 62.7 µM (inactive) | GI50 [2]: 31 µM (inactive) | GI50 [3]: > 100 µM (inactive) | GI50 [4]: > 100 µM | GI50 [5]: 86.5 µM (inactive) | GI50 [18]: > 100 µM (inactive) | GI50 [6]: 34.7 µM (inactive) | GI50 [7]: 95.7 µM (inactive) | GI50 [8]: 83.8 µM (inactive) | GI50 [9]: 27.5 µM (inactive) | GI50 [10]: 48.2 µM (inactive) | GI50 [19]: 59.8 µM (inactive) | GI50 [11]: 49.9 µM (inactive) | GI50 [12]: 41 µM (inactive) | GI50 [20]: 45.2 µM (inactive) | GI50 [13]: > 100 µM (inactive) | GI50 [14]: 26.4 µM (inactive) | GI50 [15]: 61 µM (inactive) | GI50 [16]: 49.1 µM (inactive) | GI50 [17]: 31.3 µM (inactive)

From ChEMBL document CHEMBL1201862, “PubChem BioAssay data set” (2004)
